In patent US6420131B1, “Use of fluorescein aryl ethers in high throughput cytochrome P450 inhibition assays” (Gentest Corporation, priority 1999, dated 2002):

Experiments:
Rat CYP2C12 = biological target: T1, Rat CYP2C12 (Rattus norvegicus, UniProt P11510); assay: Turnover of fluorometric substrates by rat CYP2C12; conditions: substrate uM: Ia 2, AMMC 20, CEC 40, MFC 50, BFC 50, BQ 40, BzRes 50; 30 min; enzyme 50 nM
T1 sequence (P11510 1-490): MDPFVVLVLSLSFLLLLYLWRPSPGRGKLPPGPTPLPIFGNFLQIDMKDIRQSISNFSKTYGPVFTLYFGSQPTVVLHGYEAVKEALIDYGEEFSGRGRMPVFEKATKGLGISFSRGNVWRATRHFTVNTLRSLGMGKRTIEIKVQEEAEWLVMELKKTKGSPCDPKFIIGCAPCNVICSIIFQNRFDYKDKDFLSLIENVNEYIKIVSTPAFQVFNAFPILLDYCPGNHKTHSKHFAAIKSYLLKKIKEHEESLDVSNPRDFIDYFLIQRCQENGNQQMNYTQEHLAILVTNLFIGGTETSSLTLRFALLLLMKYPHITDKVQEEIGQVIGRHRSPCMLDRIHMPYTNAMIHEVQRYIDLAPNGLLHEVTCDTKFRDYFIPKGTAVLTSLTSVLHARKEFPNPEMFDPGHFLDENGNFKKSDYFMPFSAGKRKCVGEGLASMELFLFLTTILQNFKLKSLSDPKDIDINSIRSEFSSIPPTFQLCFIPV

human CYP3A4 = human CYP3A4 (Homo sapiens, UniProt P08684); assay: Enzyme kinetics of substrate turnover by cDNA-expressed CYP3A4; format: biochemical; design: purchased GENTEST Corporation P202; host or cells: baculovirus/insect cells (microsomes, SUPERSOMES); conditions: for Vmax: CYP3A4
Chain of human CYP3A4 (P08684 whole entry): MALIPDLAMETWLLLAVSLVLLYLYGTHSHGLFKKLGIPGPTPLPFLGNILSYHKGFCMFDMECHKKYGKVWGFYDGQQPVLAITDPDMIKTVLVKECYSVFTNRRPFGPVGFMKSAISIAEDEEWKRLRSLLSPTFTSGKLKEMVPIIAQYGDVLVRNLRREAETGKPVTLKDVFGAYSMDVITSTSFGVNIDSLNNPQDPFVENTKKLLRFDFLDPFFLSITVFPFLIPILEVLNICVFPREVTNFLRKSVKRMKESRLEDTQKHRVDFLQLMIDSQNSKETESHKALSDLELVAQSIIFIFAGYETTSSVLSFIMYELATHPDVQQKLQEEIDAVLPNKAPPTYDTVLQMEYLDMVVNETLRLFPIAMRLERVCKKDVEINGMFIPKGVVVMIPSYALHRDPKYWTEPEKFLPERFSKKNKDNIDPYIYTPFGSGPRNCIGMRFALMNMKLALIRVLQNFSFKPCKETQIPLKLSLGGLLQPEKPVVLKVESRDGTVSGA
Method: The evaluation of compounds of Formula I were performed by measuring the kinetics of turnover using cDNA-expressed cytochromes P450 CYP3A4 and CYP2C8. Vmax and Km values are important for the optimization of the assay conditions and for setting the parameters for inhibition experiments.
Example Compound Ia. […] Final incubation volume was 0.2 ml. […] The activity was quantitated by comparing to a standard curve of fluorescein. Apparent Km and Vmax values were calculated by non-linear regression using SigmaPlot software.

Rat CYP2E1 = Rat CYP2E1 (Rattus norvegicus, UniProt P05182); assay: Turnover of fluorometric substrates by rat CYP2E1; conditions: substrate uM: Ia 2, AMMC 20, CEC 40, MFC 50, BFC 50, BQ 40, BzRes 50; 30 min; enzyme 87 nM, lymphoblastoid microsomes
Chain of Rat CYP2E1 (P05182 whole entry): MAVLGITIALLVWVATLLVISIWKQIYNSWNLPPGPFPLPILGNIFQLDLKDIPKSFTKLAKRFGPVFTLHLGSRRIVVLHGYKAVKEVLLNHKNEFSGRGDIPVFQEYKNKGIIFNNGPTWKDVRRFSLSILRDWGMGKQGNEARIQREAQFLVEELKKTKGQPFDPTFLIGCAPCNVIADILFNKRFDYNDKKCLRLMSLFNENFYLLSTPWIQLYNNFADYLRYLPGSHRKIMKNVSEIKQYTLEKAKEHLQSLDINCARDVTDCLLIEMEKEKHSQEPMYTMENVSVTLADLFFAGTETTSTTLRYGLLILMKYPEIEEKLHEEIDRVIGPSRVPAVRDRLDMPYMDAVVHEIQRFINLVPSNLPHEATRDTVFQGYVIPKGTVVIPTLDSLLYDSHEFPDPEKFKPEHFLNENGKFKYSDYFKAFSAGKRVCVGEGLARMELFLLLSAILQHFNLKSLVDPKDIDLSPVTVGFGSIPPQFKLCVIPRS

[1] = biological target: T2, panel of Human P450 enzymes (Homo sapiens, UniProt P10632); assay: Substrate specificity, dealkylation of Compounds Ia and Ib by a panel of human P450 enzymes; format: biochemical; conditions: CYP2C8
T2 construct: purchased GENTEST Corporation; host or cells: baculovirus/insect cells (microsomes, SUPERSOMES)
T2 sequence (P10632 1-490): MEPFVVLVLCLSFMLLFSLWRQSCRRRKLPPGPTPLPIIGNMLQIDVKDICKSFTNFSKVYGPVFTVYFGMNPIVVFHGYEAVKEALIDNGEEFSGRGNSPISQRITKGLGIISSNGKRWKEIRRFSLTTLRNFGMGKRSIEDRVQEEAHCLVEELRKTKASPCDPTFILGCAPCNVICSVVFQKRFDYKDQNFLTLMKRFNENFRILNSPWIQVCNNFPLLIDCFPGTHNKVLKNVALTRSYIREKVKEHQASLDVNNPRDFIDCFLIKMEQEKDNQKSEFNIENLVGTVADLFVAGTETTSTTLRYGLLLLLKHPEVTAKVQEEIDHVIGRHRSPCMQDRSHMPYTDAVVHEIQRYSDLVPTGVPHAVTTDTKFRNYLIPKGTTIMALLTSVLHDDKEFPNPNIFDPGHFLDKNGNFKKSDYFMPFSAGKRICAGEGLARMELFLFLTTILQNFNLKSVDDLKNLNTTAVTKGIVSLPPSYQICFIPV
Method: (§1) The specificity of several cytochrome P450 enzymes for the dealkylation of Compound Ia (FIG. 1) and Compound Ib (FIG. 2) was examined.
(§2) Example Compounds Ia and Ib. […] Final incubation volume was 0.2 ml.

[2] = biological target: T3, panel of Human P450 enzymes (Homo sapiens, UniProt P04798); assay: as above; format: biochemical; conditions: CYP1A1
T3 construct: purchased GENTEST Corporation; host or cells: baculovirus/insect cells (microsomes, SUPERSOMES)
T3 sequence (P04798 1-512): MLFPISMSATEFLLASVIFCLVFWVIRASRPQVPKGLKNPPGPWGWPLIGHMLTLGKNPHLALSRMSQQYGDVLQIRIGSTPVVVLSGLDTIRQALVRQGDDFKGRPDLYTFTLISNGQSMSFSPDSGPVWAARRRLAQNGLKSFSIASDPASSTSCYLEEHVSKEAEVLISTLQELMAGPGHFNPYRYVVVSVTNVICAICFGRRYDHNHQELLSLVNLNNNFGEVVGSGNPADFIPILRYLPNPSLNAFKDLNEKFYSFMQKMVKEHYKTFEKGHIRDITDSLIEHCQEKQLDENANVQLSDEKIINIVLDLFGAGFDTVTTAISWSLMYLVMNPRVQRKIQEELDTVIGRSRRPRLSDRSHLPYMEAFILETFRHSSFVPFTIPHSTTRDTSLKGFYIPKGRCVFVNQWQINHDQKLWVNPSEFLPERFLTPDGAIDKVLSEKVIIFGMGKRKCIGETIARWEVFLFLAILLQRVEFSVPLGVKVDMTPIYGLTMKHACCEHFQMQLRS
Method: as §1, §2

[3] = test system: panel of Human P450 enzymes; assay: as above; format: biochemical; conditions: CYP2C9*1, CYP2C19, members of the CYP3A family
Method: as §1, §2

SMILES: c1ccc(COc2ccc3cccnc3c2)cc1 [BQ, 7-Benzyloxyquinoline]
- Turnover Numbers, CYP2C12 (Rat CYP2C12): 1.5 pmol product/min/pmol enzyme

SMILES: O=c1ccc2nc3ccc(OCc4ccccc4)cc3oc-2c1 [BzRes, 7-benzyloxyresorufin]
- Vmax (human CYP3A4): 2.3 ± 0.2
- Km (human CYP3A4; CYP3A4, apparent Km): 30 ± 7 µM

SMILES: CCOc1ccc2cc(C#N)c(=O)oc2c1 [CEC, 7-Ethoxy-3-cyanocoumarin]
- Turnover Numbers, CYP2E1 (Rat CYP2E1): 0.10 pmol product/min/pmol enzyme

SMILES: O=C(OCc1ccccc1)c1ccccc1-c1c2ccc(=O)cc-2oc2cc(OCc3ccccc3)ccc12 [Compound Ia, O-Benzylfluorescein Benzyl Ester]
- Vmax (human CYP3A4): 22 ± 0.98
- dealkylation activity [1]: substantial enzyme activity
- dealkylation activity [2]: highest activity
- dealkylation activity [3]: catalyzed the dealkylation

SMILES: COc1ccc2c(C(F)(F)F)cc(=O)oc2c1 [MFC, 7-Methoxy-4-trifluoromethylcoumarin]
- Turnover Numbers, CYP2E1 (Rat CYP2E1): 2.11 pmol product/min/pmol enzyme
- Turnover Numbers, CYP2C12 (Rat CYP2C12): 0.24 pmol product/min/pmol enzyme
